In the SangsterLogP compilation one finds logD data, which are given here for eight compounds.

The data set can be described thus: method code TLC index, from DOI: 10.1016/0223-5234(96)88245-6. The settings on record: pH 7.4.

In the case of `CCOC(=O)C1=C(C)NC(C)=C(C(=O)OCC)C1c1cccc([N+](=O)[O-])c1`, the logD was 1.6.
Compound `CCOC(=O)C1=C(C)NC(C)=C(C(=O)OCC)C1c1cc(F)cc(F)c1` registered a logD of 2.09.
With `COC(=O)C1=C(C)NC(C)=C(C(=O)OCCOc2ccccc2)C1c1cc(F)cc(F)c1` (stereo not drawn) the figure was 3.08; with `COC(=O)C1=C(C)NC(C)=C(C(=O)OC)C1c1ccc(F)c(Br)c1`, 1.48.
In turn, `COC(=O)C1=C(C)NC(C)=C(C(=O)OC)C1c1ccc(F)cc1` came in with a logD of 0.82.
`COC(=O)C1=C(C)NC(C)=C(C(=O)OC)C1c1cc(F)cc(F)c1` registered a logD of 1.15.
Compound `CCOC(=O)C1=C(C)NC(C)=C(C(=O)OC)C1c1cc(F)cc(F)c1` (stereo not drawn) had a logD of 1.46.
With `CCOC(=O)C1=C(C)NC(C)=C(C(=O)OCC)C1c1ccc(F)cc1` the figure was 1.66.
